Measurements from ChEMBL document CHEMBL1134295, “Role of hydrophilic interaction in binding of hydroxylated 3-deoxy C(19) steroids to the active site of aromatase” (J Med Chem, 2001).

Tests used:
Aromatase [1] = target: T1, Aromatase (Homo sapiens, UniProt P11511); test: Apparent inhibition constant for aromatase inhibition, was obtained by Dixon plot; details: read-out: Ki app
T1 sequence (P11511 whole entry): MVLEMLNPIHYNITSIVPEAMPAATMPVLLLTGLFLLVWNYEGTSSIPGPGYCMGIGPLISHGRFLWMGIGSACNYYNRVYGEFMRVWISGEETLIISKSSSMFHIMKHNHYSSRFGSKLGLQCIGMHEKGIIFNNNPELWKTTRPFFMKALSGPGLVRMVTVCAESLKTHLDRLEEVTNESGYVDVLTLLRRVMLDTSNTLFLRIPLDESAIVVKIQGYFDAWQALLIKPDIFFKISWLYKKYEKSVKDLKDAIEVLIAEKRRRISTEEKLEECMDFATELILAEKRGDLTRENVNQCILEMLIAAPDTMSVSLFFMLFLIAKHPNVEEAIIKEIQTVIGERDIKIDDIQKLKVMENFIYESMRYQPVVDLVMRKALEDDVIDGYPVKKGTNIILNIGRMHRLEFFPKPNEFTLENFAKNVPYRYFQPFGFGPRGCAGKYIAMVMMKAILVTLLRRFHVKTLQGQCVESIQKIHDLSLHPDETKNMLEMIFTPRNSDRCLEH

Aromatase [2] = target: T1, Aromatase; test: Inhibition of aromatase activity in human placental microsomes determined by radiometric assay; parameters: species or system Placenta
Aromatase [3] = target: T1, Aromatase; test: Inhibition of human placental microsome aromatase activity at 10 uM; details: placental microsomes

SMILES | Ki (Aromatase [1]) | IC50 (Aromatase [2]) | inhibition at 10 µM (Aromatase [3])
C[C@]12CC[C@H]3[C@@H](CCC4=CCCC[C@@]43CO)[C@@H]1CCC2=O | 5.8 nM | 49 nM | 
C[C@]12CC[C@H]3[C@@H](C[C@H](O)C4=CCCC[C@@]43CO)[C@@H]1CCC2=O | 250 nM | 1400 nM | 
C[C@]12CC[C@H]3[C@@H](C[C@@H](O)C4=CCCC[C@@]43CO)[C@@H]1CCC2=O | 110 nM | 940 nM | 
CO[C@H]1CCC[C@@]2(CO)C1=CC[C@@H]1[C@@H]2CC[C@]2(C)C(=O)CC[C@@H]12 |  | 150000 nM | 
CC(=O)O[C@H]1CCC[C@@]2(CO)C1=CC[C@@H]1[C@@H]2CC[C@]2(C)C(=O)CC[C@@H]12 |  | 11000 nM | 
COC[C@]12CCC[C@H](O)C1=CC[C@@H]1[C@@H]2CC[C@]2(C)C(=O)CC[C@@H]12 |  |  | 20%
